Values after ≈ are worked out from the molar mass of the structure shown. Read-outs that look alike come from different tables or passages of the source.
Legend:
[1] = tested on: C. difficile biofilms (strains R20291, CD 630); assay: C. difficile in vitro biofilm studies (MIC, MBIC, CFU/mL, Crystal Violet biomass); assay type: cell-based; details: for MBIC: Minimum Biofilm Inhibitory Concentration; for MIC: Clostridioides difficile
Experimental: A basic flow chart outlining the experimental procedure used in these studies may be seen in FIG. 14. Briefly, C. difficile laboratory strain R20291 was grown in Brain heart infusion-supplemented (BHIS) medium. […] Biofilm formation was established via anaerobic incubation of the cultures at 37° C. for 24 hrs. Early biofilm formation was established at 4 hrs, whereas late biofilm formation was established at 24 hrs, 48 hrs, and 72 hrs. Following biofilm formation, the BHIS medium was removed and replaced with fresh media comprising no antibiotic (control), ibezapolstat (IBZ), Fidaxomicin (FDX), or metronidazole (MTZ). The cultures were then anaerobically incubated for 24 hrs or subjected to time course tests. Biofilm biomass was measured using Crystal Violet staining. […] Data was measured and recorded using Cytation 3 calibrated to read at A570. Data was analyzed by comparing percent growth of antibiotic treated cultures with controls.

gut microbiome [2] = assay: Germ-free humanized mouse study, 16S rRNA gut microbiome analysis; assay type: in vivo; details: humanized germ-free mice
Source text: Germ-free (GF) mice (six per group) were randomly assigned to IBZ, VAN, FDX, MTZ, or control groups.
An oral gavage of healthy human-derived fecal slurry was given to GF mice. The humanized mice were housed in a sterile biological safety cabinet (BSC) for one week to allow the donor gut microbiome to establish. Humanized mice were then moved to sterile, micro-isolator cages and pellet chow diet was exchanged for a powder chow diet. The humanized mice were then allowed one week to acclimate to the powder chow diet. In addition, a stool sample was obtained prior to the change in diet (baseline 1). At day 14, once the mice acclimated to the powder chow diet, a second baseline stool sample was obtained (baseline 2) and antibiotic treatment was started. The appropriate antibiotics were added to the powder chow diet for 10 days. At day 16, two days after beginning antibiotic treatment, another stool sample was collected (ABX-1). During the 10-day antibiotic treatment, powder chow dishes were refilled each day with fresh chow containing the randomly assigned antibiotic. Stool samples were again collected at day 24 (ABX-2).
To assess antibiotic microbiome effect, 16S rRNA metagenomics was used on stool samples that were collected at day 0 (baseline 1 and baseline 2) and after 2 and […] of treatment with antibiotics. Bulk DNA was extracted from stool samples using the DNeasy® PowerSoil® Kit. The V4 region of the bacterial 16S rRNA gene was sequenced using the Illumina MiSeq and CLC Genomics Workbench. Raw sequencing reads were processed and curated using the mothur (v.1.48.0) software package and the mothur MiSeq SOP was followed as outlined in Schloss, P. D., et al., Introducing mothur: open-source, platform-independent, community supported software for describing and comparing microbial communities. Appl Environ Microbiol, 2009. 75(23): p. 7537-41 (see also, Kozich, J. J., et al., Development of a dual-index sequencing strategy and curation pipeline for analyzing amplicon sequence data on the MiSeq Illumina sequencing platform. Appl Environ Microbiol, 2013. 79(17): p. 5112-20.). All data visualization and statistical analysis were performed using R studio (R Core Team (2023). R: A Language and Environment for Statistical Computing, Vienna, Austria.).

[3] = tested on: C. difficile clinical isolates; details: for MIC: Clostridioides difficile, 24 h, agar dilution; for MIC range: across the twelve clinical isolates tested
[4] = tested on: bacterial infections in the gut; details: treatment of bacterial infections in the gut; cited from earlier work
gut microbiome [5] = assay: Phase 1 healthy volunteer study, gut microbiome (metagenomics, qPCR); assay type: in vivo, human; details: phase 1 healthy volunteer study; treatment over 10 days; shotgun metagenomic sequencing
[6] = C. diff. strain R20291, read-out: MIC
[7] = antibiotic in powder chow 10 days
[8] = antibiotic in powder chow 10 days, compared to Baseline 2 (D14)
[9] = C. difficile clinical isolate MT 4802
[10] = C. difficile clinical isolate MT 5071
[11] = C. difficile clinical isolate MT 5342
[12] = C. difficile clinical isolate MT 5364
[13] = C. difficile clinical isolate MT 5382
[14] = C. difficile clinical isolate MT 5426
[15] = C. difficile clinical isolate MT 5493
[16] = C. difficile clinical isolate MT 5515
[17] = C. difficile clinical isolate MT 5529
[18] = C. difficile clinical isolate MT 5536
[19] = C. difficile clinical isolate SH 1132

SMILES | MBIC ([1]; C. diff. strain R20291) | MIC [1, 6] | Average Change in Metric ± SD, Bray-Curtis Dissim. to Baseline 1 (gut microbiome [2]; [7]) | Average Change in Metric ± SD, Bray-Curtis Dissim. to Baseline 2 (gut microbiome [2]; [7]) | Avg. Change in Relative Abundance ± SD, Proteobacteria (gut microbiome [2]; [8]) | MIC [3, 9] | MIC [3, 10] | MIC [3, 11] | MIC [3, 12] | MIC [3, 13] | MIC [3, 14] | MIC [3, 15] | MIC [3, 16] | MIC [3, 17] | MIC [3, 18] | MIC [3, 19] | MIC range [3] | relative abundance of Proteobacteria (in words) (gut microbiome [2]; phylum level) | relative abundance of Verrucomicrobiota (in words) (gut microbiome [2]; phylum level) | other results
CCc1c(Cl)c(O)c(Cl)c(O)c1C(=O)O[C@H]1[C@H](O)[C@H](OC)[C@H](OC/C2=C\C=C\C[C@H](O)/C(C)=C/[C@H](CC)[C@@H](O[C@@H]3OC(C)(C)[C@@H](OC(=O)C(C)C)[C@H](O)[C@@H]3O)/C(C)=C/C(C)=C/C[C@@H]([C@@H](C)O)OC2=O)O[C@@H]1C [Fidaxomicin, fidaxomicin] | 0.125 µg/mL | 0.06 µg/mL (≈ 0.0567 µM) | 0.62 ± 0.02 | 0.39 ± 0.03 | 10.2% ± 3% | 0.006 µg/mL (≈ 0.00567 µM) | 1 µg/mL (≈ 0.945 µM) | 1 µg/mL (≈ 0.945 µM) | 1 µg/mL (≈ 0.945 µM) | 1 µg/mL (≈ 0.945 µM) | 0.5 µg/mL (≈ 0.473 µM) | 1 µg/mL (≈ 0.945 µM) | 2 µg/mL (≈ 1.89 µM) | 0.5 µg/mL (≈ 0.473 µM) | 1 µg/mL (≈ 0.945 µM) | 0.5 µg/mL (≈ 0.473 µM) | <0.03125 to 2 µg/mL |  |  | change of Firmicutes (in words) (gut microbiome [2]; phylum level): increased; proportional change of Bacteroidetes (in words) (gut microbiome [2]; phylum level): proportional increases; Avg. Change in Relative Abundance ± SD, Bacteroidetes (gut microbiome [2]; [8]): 9.9% ± 2.9%; Avg. Change in Relative Abundance ± SD, Verrucomicrobia (Akkermansia) (gut microbiome [2]; [8]): 3.6% ± 2.8%
CN[C@H](CC(C)C)C(=O)N[C@H]1C(=O)N[C@@H](CC(N)=O)C(=O)N[C@H]2C(=O)N[C@H]3C(=O)N[C@H](C(=O)N[C@H](C(=O)O)c4cc(O)cc(O)c4-c4cc3ccc4O)[C@H](O)c3ccc(c(Cl)c3)Oc3cc2cc(c3O[C@@H]2O[C@H](CO)[C@@H](O)[C@H](O)[C@H]2O[C@H]2C[C@](C)(N)[C@H](O)[C@H](C)O2)Oc2ccc(cc2Cl)[C@H]1O [Vancomycin, vancomycin] | 1 µg/mL |  | 0.84 ± 0.02 | 0.75 ± 0.03 | 37.2% ± 2.8% | 1 µg/mL (≈ 0.69 µM) | 4 µg/mL (≈ 2.76 µM) | 8 µg/mL (≈ 5.52 µM) | 4 µg/mL (≈ 2.76 µM) | 1 µg/mL (≈ 0.69 µM) | 4 µg/mL (≈ 2.76 µM) | 1 µg/mL (≈ 0.69 µM) | 4 µg/mL (≈ 2.76 µM) | 1 µg/mL (≈ 0.69 µM) | 2 µg/mL (≈ 1.38 µM) | 4 µg/mL (≈ 2.76 µM) | 1 to 16 µg/mL | proportional increases | increased | C. diff growth (CFU/mL) and biomass at sub-MIC compared to control ([1]; 0.4× MIC): reduced; growth in early biofilms at supra-MIC ([1]; 40× MIC, after 48 hours of treatment): reduced growth; MIC [1]: 1 µg/mL (≈ 0.69 µM); relative abundance of Proteobacteria (in words) (gut microbiome [2]; phylum level, listed as VAN): increased; patients having a recurring infection after treatment is discontinued [4]: 20-25%; microbiome profile of treated subjects (gut microbiome [5]): larger proportion of Proteobacteria; MIC ([3]; C. difficile clinical isolate MT 4883): 8 µg/mL (≈ 5.52 µM)
Cc1ncc([N+](=O)[O-])n1CCO [Metronidazole, metronidazole] | 0.5 µg/mL | 0.5 µg/mL (≈ 2.92 µM) | 0.92 ± 0.02 | 0.92 ± 0.04 | 15.1% ± 3.8% | 0.25 µg/mL (≈ 1.46 µM) | 1 µg/mL (≈ 5.84 µM) | 2 µg/mL (≈ 11.7 µM) | 2 µg/mL (≈ 11.7 µM) | 2 µg/mL (≈ 11.7 µM) | 4 µg/mL (≈ 23.4 µM) | 2 µg/mL (≈ 11.7 µM) | 4 µg/mL (≈ 23.4 µM) | 2 µg/mL (≈ 11.7 µM) | 0.25 µg/mL (≈ 1.46 µM) | 1 µg/mL (≈ 5.84 µM) | 0.25 to 8 µg/mL | proportional increases | increased | Eagle effect in 24-hour biofilms ([1]; R20291 or CD 630, at higher concentrations): Eagle effect was observed; relative abundance of Proteobacteria (in words) (gut microbiome [2]; phylum level, listed as MTZ): increased; Avg. Change in Relative Abundance ± SD, Firmicutes (gut microbiome [2]; [8]): 36.5% ± 5.1%

— US20260144796A1, “Compounds and Methods for Improving Health” (Acurx Pharmaceuticals, Inc., priority 2022, published 2026)
